Laboratory results taken from US8067042B1 (Mutual Pharmaceutical Company, Inc., priority 2007, dated 2011).
“And” between values parts separate entries of the source, which are not always exact repeats. Equal values may be shown once. Read-outs that look alike come from different tables or passages of the source.

Key:
CYP2A6 [1] = target: T1, CYP2A6 (Homo sapiens, UniProt P11509); conditions: 10 μM Tranylcypromine
T1 sequence (P11509 1-494): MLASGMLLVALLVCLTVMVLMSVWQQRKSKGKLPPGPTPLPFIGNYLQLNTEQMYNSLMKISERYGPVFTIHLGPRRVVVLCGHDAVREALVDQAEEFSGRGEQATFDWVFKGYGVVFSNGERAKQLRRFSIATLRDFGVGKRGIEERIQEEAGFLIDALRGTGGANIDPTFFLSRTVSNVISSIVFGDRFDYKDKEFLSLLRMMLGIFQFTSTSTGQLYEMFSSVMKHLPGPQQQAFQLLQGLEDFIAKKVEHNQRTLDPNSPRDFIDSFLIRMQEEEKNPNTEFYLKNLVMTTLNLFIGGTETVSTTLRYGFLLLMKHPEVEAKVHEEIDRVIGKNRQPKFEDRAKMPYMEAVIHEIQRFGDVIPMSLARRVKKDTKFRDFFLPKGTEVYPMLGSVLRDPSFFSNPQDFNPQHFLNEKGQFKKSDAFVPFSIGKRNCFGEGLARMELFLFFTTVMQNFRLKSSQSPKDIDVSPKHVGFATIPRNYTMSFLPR

CYP2E1 [2] = target: T2, CYP2E1 (Homo sapiens, UniProt P05181); conditions: 60 min, 100 μM, pH 7.4
CYP1A2 = target: T3, CYP1A2 (Homo sapiens, UniProt P05177); conditions: 60 min, 5 μM, pH 7.4
T3 sequence (P05177 1-516): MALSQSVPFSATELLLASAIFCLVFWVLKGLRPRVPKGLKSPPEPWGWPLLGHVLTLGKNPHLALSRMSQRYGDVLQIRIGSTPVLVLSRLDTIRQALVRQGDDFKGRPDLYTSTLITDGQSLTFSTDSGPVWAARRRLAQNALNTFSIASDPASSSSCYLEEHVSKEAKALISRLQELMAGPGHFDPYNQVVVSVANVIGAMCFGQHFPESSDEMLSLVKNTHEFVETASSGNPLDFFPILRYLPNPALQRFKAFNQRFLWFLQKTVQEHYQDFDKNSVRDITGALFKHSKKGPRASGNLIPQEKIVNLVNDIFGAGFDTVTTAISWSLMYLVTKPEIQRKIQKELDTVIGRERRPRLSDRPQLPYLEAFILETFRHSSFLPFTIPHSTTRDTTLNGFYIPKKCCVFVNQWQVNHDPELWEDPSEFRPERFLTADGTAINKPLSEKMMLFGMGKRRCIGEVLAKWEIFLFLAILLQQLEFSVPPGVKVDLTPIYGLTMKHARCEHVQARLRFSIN

CYP2C8 [3] = format: in vitro ADME; conditions: 50 μM megestrol acetate (Parent)
CYP2E1 [4] = format: in vitro ADME; conditions: 50 μM megestrol acetate (Parent)
CYP2A6 [5] = conditions: 50 μM megestrol acetate (Parent), 0.5 mg/mL pooled human liver microsomes with 1% water (no inhibitor)
CYP2B6 [6] = target: T4, CYP2B6 (Homo sapiens, UniProt P20813); conditions: 50 μM megestrol acetate (Parent), 0.5 mg/mL pooled human liver microsomes with 1% methanol (no inhibitor)
T4 sequence (P20813 1-491): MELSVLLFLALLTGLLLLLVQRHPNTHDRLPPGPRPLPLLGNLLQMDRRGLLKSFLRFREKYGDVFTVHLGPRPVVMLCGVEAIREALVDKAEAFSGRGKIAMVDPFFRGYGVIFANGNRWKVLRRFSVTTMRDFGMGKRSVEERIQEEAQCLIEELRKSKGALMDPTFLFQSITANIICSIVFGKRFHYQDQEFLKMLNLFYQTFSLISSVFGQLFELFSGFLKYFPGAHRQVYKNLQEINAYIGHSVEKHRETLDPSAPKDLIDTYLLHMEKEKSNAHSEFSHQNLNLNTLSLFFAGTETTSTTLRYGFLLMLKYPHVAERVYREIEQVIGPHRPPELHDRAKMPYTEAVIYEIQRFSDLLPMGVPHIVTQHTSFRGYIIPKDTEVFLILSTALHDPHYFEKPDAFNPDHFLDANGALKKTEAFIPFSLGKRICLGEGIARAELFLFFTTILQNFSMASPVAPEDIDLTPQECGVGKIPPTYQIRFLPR

CYP2A6 [7] = target: T1, CYP2A6; format: in vitro ADME; parameters: purchased BD Biosciences Discovery Labware, Woburn, Mass; host or cells: baculovirus-infected insect cells; conditions: LC/MS; 50 μM megestrol acetate (Parent), 20 pmol Human CYP2A6 + P450 Reductase + Cytochrome b5 SUPERSOMES
CYP2B6 [8] = target: T4, CYP2B6; format: in vitro ADME; parameters: purchased BD Biosciences Discovery Labware, Woburn, Mass; host or cells: baculovirus-infected insect cells; conditions: LC/MS; 50 μM megestrol acetate (Parent), 20 pmol Human CYP2B6 + P450 Reductase + Cytochrome b5 SUPERSOMES
CYP2C8 [9] = target: T5, CYP2C8 (Homo sapiens, UniProt P10632); format: in vitro ADME; parameters: purchased BD Biosciences Discovery Labware, Woburn, Mass; host or cells: baculovirus-infected insect cells; conditions: LC/MS; 50 μM megestrol acetate (Parent), 20 pmol Human CYP2C8 + P450 Reductase + Cytochrome b5 SUPERSOMES
T5 sequence (P10632 1-490): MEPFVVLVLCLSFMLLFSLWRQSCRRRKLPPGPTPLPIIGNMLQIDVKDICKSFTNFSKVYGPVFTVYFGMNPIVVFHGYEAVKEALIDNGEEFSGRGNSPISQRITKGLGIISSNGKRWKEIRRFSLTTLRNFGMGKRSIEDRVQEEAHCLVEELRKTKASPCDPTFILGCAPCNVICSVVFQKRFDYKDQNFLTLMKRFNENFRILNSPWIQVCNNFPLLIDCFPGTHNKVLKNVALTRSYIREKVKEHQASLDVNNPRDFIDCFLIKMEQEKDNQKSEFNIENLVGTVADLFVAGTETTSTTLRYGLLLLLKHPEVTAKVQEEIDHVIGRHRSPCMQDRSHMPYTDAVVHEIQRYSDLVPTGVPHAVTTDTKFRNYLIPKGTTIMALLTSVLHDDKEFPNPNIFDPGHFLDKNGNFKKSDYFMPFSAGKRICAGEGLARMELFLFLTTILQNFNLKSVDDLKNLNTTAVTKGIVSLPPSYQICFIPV

CYP2E1 [10] = target: T2, CYP2E1; format: in vitro ADME; parameters: purchased BD Biosciences Discovery Labware, Woburn, Mass; host or cells: baculovirus-infected insect cells; conditions: LC/MS; 50 μM megestrol acetate (Parent), 20 pmol Human CYP2E1 + P450 Reductase + Cytochrome b5 SUPERSOMES
CYP2C8 [11] = target: T5, CYP2C8; conditions: 60 min, 100 μM, pH 7.4
Method: After a 5-minute pre-incubation, NRS was added to the incubation mixtures to initiate reactions. The final incubation volume was 0.5 mL. Incubations were continued for 60 minutes. […] In these experiments, each CYP isoform-selective substrate was prepared as 100× stock solutions in the solvent listed below.
Incubation reactions for positive controls were terminated by adding 0.5 mL methanol, except for paclitaxel (CYP2C8) which was terminated by adding 0.75 mL of acetonitrile.
Specific activity for each CYP isoform was calculated based on the formation of metabolite from each CYP isoform-selective substrate.

[12] = 0.5 mg/mL pooled human liver microsomes with 100 μM Quercetin
[13] = 0.5 mg/mL pooled human liver microsomes with 0.1% DMSO (no inhibitor)
[14] = 0.5 mg/mL pooled human liver microsomes with 100 μM Diethyldithiocarbamate
[15] = 0.5 mg/mL pooled human liver microsomes with 1% water (no inhibitor)

T2 sequence (P05181 whole entry): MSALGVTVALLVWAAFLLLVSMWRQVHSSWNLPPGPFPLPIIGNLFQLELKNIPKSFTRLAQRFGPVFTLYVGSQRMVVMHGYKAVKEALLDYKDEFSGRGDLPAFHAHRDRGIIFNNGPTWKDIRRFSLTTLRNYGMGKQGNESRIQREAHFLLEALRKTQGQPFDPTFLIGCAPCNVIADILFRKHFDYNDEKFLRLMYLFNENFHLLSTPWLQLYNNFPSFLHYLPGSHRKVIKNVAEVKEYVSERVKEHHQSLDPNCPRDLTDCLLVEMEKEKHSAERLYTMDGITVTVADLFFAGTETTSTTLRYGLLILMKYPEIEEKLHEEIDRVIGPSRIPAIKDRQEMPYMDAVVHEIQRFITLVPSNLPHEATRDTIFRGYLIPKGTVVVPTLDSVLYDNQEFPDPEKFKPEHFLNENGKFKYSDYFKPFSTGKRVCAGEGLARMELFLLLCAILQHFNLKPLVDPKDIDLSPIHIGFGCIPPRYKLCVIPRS

`N[C@@H]1C[C@H]1c1ccccc1` (racemic) [Tranylcypromine] was tested, and the “CYP2A6 activity in presence of inhibitor” value (CYP2A6 [1]) was 18.7±0.597 pmol metabolite/minute/mg protein, the “Metabolite Formation Adjusted Individual” value (CYP2A6 [1]) was 0.582 µM and 0.548 µM and 0.556 µM and the “Metabolite Formation Adjusted Mean ± SD” value (CYP2A6 [1]) was 0.562 ± 0.0179 µM. The “Metabolite Formation Raw” value (CYP2A6 [1]) was 0.582 µM and 0.5477 µM and 0.5561 µM, the “Specific Activity Individual” value (CYP2A6 [1]) was 19.4 pmol metabolite/min/pmol protein and 18.3 pmol metabolite/min/pmol protein and 18.5 pmol metabolite/min/pmol protein and the “Specific Activity Mean ± SD” value (CYP2A6 [1]) was 18.7 ± 0.597 pmol metabolite/min/pmol protein.
With `CCN(CC)C(=S)S` [DDC, Diethyldithiocarbamate] the “Metabolite Formation Adjusted Mean ± SD” value (CYP2E1 [2]) was 1.77 ± 0.0341 µM, the “Specific Activity Mean ± SD” value (CYP2E1 [2]) was 58.9 ± 1.14 pmol metabolite/min/pmol protein and the “CYP2E1 activity in presence of inhibitor” value (CYP2E1 [2]; microsomes) was 58.9±1.14 pmol metabolite/minute/mg protein.
In the case of `Cc1nc2c([nH]1)c(=O)n(C)c(=O)n2Cc1ccco1` [Furafylline], the “Metabolite Formation Adjusted Mean ± SD” value (CYP1A2) is reported as 0.593 ± 0.0333 µM.
For `CC(=O)O[C@]1(C(C)=O)CC[C@H]2[C@@H]3C=C(C)C4=CC(=O)CC[C@]4(C)[C@H]3CC[C@@]21C` [Parent], the Area % (CYP2C8 [3]; [12]) was 99.11%, the “Peak Area” value (CYP2C8 [3]; [12]) was 5734.70 and the Area % (CYP2C8 [3]; [13]) was 69.53%. The “Peak Area” value (CYP2C8 [3]; [13]) was 4151.30, the Area % (CYP2E1 [4]; [14]) was 90.95% and the “Peak Area” value (CYP2E1 [4]; [14]) was 5225.10. The Area % (CYP2E1 [4]; [15]) was 59.79%, the “Peak Area” value (CYP2E1 [4]; [15]) was 3520.60 and the Area % (CYP2A6 [5]) was 59.79%. For the same compound, the “Peak Area” value (CYP2A6 [5]) was 2932.40, the Area % (CYP2B6 [6]) was 63.45% and the “Peak Area” value (CYP2B6 [6]) was 2924.70. For the same compound, the Area % (CYP2A6 [7]) was 100.00%, the “Peak Area” value (CYP2A6 [7]) was 7120.60 and the Area % (CYP2B6 [8]) was 98.77%. The “Peak Area” value (CYP2B6 [8]) was 7320.20, the Area % (CYP2C8 [9]) was 99.28% and the “Peak Area” value (CYP2C8 [9]) was 7474.90. The Area % (CYP2E1 [10]) was 100.00% and the “Peak Area” value (CYP2E1 [10]) was 7274.10.
`O=c1c(O)c(-c2ccc(O)c(O)c2)oc2cc(O)cc(O)c12` [Quercetin] was tested, and the “Specific Activity Mean ± SD” value (CYP2C8 [11]) was 2.64 ± 0.250 pmol metabolite/min/pmol protein and the “CYP2C8 activity in presence of inhibitor” value (CYP2C8 [11]; microsomes) was 2.64±0.250 pmol metabolite/minute/mg protein.
